Like-named read-outs stand apart in the source and are kept apart here.
Legend:
FEPD (ALCL) = test: Cell viability assay ([…]-GLO); assay type: cell-based; details: Homo sapiens, 60 h, read-out: IC50 in nM at 60 Hours
From the text: (§1) Cell lines. The T cell lymphoma cell lines HH and H9 (both Cutaneous T Cell Lymphomas; CTCL), SUP-T1 (T Cell Lymphoblastic Lymphoma) and FEPD and SUP-M2 (ALK-negative anaplastic large cell lymphoma; ALCL), were obtained from ATCC. NKL (Natural killer cell lymphoblastic leukemia/lymphoma) cell lines (Robertson et al., 1996) were also employed. The cutaneous melanoma cell line FM3-29 was obtained from DSMZ. The Large Granular Lymphocyte (LGL) leukemia cell line TL-1 was generated in the Loughran lab. All cells were grown at 37° C. and 5% CO2 in a humidified incubator. Cell lines were authenticated by short tandem repeat DNA profiling (Genetica DNA laboratories) and tested for mycoplasma contamination routinely using the MycoAlert PLUS detection kit (Lonza #LT07-710). Experiments were performed within 6 weeks of thawing. HH, H9, SUP-T1, FEPD and FM3-29 cells were cultured in RPMI-1640 (Corning, Glendale, AZ) with 10% FBS (Thermofisher Scientific, Waltham, MA). SUP-M2 cells were cultured in RPMI-1640 with 20% FBS. TL-1 cells were cultured in RPMI-1640 with 10% FBS and supplemented with 200 U/ml IL-2 (Miltenyi Biotec cat #130-097-743). NKL cells were cultured in RPMI-1640 with 10% FBS and supplemented with 100 U/ml IL-2.
(§2) Cell Viability Assay. For cell viability, cell lines were plated at the appropriate cell densities (SUP-T1, HH, NKL and TL-1 at 100,000 cells/ml/well and H9, FEPD SUP-M2 and FM3-29 at 50,000 cells/ml/well) in a 48-well plate. […] Cells were harvested after 24, 60, and 96 hours of incubation at 37° C., 5% CO2 and assayed for cell viability, using […]-GLO® (Promega) luminescence reagent, by quantifying the amount of ATP present. After 15 minutes of adding […]-GLO® reagent at a 1:1 ratio, luminescence was read on a GLOMAX® Discover Microplate Reader (Promega). Luminescence was normalized to untreated control, which was defined as 100% viability.

[1] = test system: FM3-29 (cutaneous melanoma); test: Cell viability assay ([…]-GLO); assay type: cell-based; details: Homo sapiens, 60 h, read-out: IC50 in nM at 60 Hours
From the text: as §1, §2

H9 (CTCL) = test: Cell viability assay ([…]-GLO); assay type: cell-based; details: Homo sapiens, 60 h, read-out: IC50 in nM at 60 Hours
From the text: as §1, §2

HH (CTCL) = test: Cell viability assay ([…]-GLO); assay type: cell-based; details: Homo sapiens, 60 h, read-out: IC50 in nM at 60 Hours
From the text: as §1, §2

[2] = test system: NKL (Natural killer cell lymphoblastic leukemia/lymphoma); test: Cell viability assay ([…]-GLO); assay type: cell-based; details: Homo sapiens, 60 h, read-out: IC50 in nM at 60 Hours
From the text: as §1, §2

SUP-M2 (ALK-ALCL) = test: Cell viability assay ([…]-GLO); assay type: cell-based; details: Homo sapiens, SUP-M2, 60 h, read-out: IC50 in nM at 60 Hours
From the text: as §1, §2

[3] = test system: SUP-T1 (T Cell Lymphoblastic Lymphoma); test: Cell viability assay ([…]-GLO); assay type: cell-based; details: Homo sapiens, SUP-T1, 60 h, read-out: IC50 in nM at 60 Hours
From the text: as §1, §2

TL-1 (LGL leukemia) = test: Cell viability assay ([…]-GLO); assay type: cell-based; details: Homo sapiens, 60 h, read-out: IC50 in nM at 60 Hours
From the text: as §1, §2

[4] = test system: cancer cell lines (SUP-T1, FEPD, H9, HH, SUP-M2, NKL, TL-1, FM3-29); test: Cell viability assay, summary across all cancer cell lines tested; assay type: cell-based, human
Method: Cell Viability Assay. For cell viability, cell lines were plated at the appropriate cell densities (SUP-T1, HH, NKL and TL-1 at 100,000 cells/ml/well and H9, FEPD SUP-M2 and FM3-29 at 50,000 cells/ml/well) in a 48-well plate. […] Luminescence was normalized to untreated control, which was defined as 100% viability.

PTCL = details: cited from earlier work; for Outcomes: ORR / Outcomes: CR / Outcomes: DOR: patients with PTCL; for response, share of patients: R/R PTCL
[5] = test system: human CLL, PLL, T cell lymphoma, esophageal and pancreatic cancer and multiple myeloma cells; details: in vitro; cited from earlier work
[6] = single agent, pivotal trial cited per drug (romidepsin: trial (6))

Question: For C/C=C1\NC(=O)[C@H]2CSSCC/C=C/[C@H](CC(=O)N[C@H](C(C)C)C(=O)N2)OC(=O)[C@H](C(C)C)NC1=O [Romidepsin, (1S,4S,7Z,10S,16E,21R)-7-Ethylidene-4,21-diisopropyl-2-oxa-12,13-dithia-5,8,20,23-tetrazabicyclo[8.7.6]tricos-16-ene-3,6,9,19,22-pentone], which IC50 (FEPD (ALCL)) is on record?
Answer: 1.6 nM

Question: What about the IC50 [1] of the same molecule?
Answer: 0.6 nM

Question: And the IC50 (H9 (CTCL))?
Answer: 1.4 nM

Question: And the IC50 (HH (CTCL))?
Answer: 1.3 nM

Question: What about the IC50 [2] of the same molecule?
Answer: 0.7 nM

Question: And the IC50 (SUP-M2 (ALK-ALCL))?
Answer: 1.6 nM

Question: What about the IC50 [3] of the same molecule?
Answer: 1.9 nM

Question: What about the IC50 (TL-1 (LGL leukemia)) of the same molecule?
Answer: 0.7 nM

Question: What about the IC50 ([4]; Homo sapiens, 60 h, read-out: Avg. IC50 across the cancer cell lines, 60 hours, 8 cancer cell lines, b235 with +/- spread) of the same molecule?
Answer: 1.23 nM

Question: And the IC50 ([4]; Homo sapiens, 60 h, read-out: IC50 range across the cancer cell lines, 60 hours, 8 cancer cell lines)?
Answer: 0.6 to 1.9 nM

Question: What about the IC50 ([4]; read-out: Avg. IC50 across the cancer cell lines, 60 hours, 8 cancer cell lines, b235 with +/- spread) of the same molecule?
Answer: 1.23 nM

Question: What about the “Outcomes: ORR” value (PTCL; single agent, pivotal trial cited per drug (romidepsin: trial (6) Coiffier et al., 2014)) of the same molecule?
Answer: 25%

Question: What about the “Outcomes: CR” value (PTCL; [6]) of the same molecule?
Answer: 15%

Question: And the “Outcomes: DOR” value (PTCL; [6])?
Answer: 28 months

Question: And the “Outcomes: CR” value (PTCL; trial (7) Piekarz et al., 2011)?
Answer: 18%

Question: And the “Outcomes: DOR” value (PTCL; trial (7) Piekarz et al., 2011)?
Answer: 8.9 months

Question: What about the “Outcomes: ORR” value (PTCL; trial (7) Piekarz et al., 2011) of the same molecule?
Answer: 38%

Question: And the “response, share of patients” value (PTCL; single agent)?
Answer: 25%

Question: And the “response, share of patients” value (PTCL; single agent, listed as romidepsin)?
Answer: about 25%

Question: And the “concentrations at which anti-proliferative and pro-apoptotic activity was seen” value [5]?
Answer: 1 to 500 nM

Source: patent publication US20250302767A1, “TREATMENT OF CANCER AND AUTOIMMUNE DISORDERS USING NANO POLYMERS OF HISTONE DEACETYLASE INHIBITORS” (University of Virginia Patent Foundation, priority 2021, published 2025)
